Tests used:
MCF7 cells = assay: Multiplexed cell number, β-gal and TUNEL in MCF7; format: cell-based, human; details: 0.125 µM or 0.5 µM, 1-5 DT
Method: The viable cell number was determined by PI staining, the % of β-gal positive cells was determined using an antibody to β-gal, and the % of Tunel positive cells was determined by the incorporation of labelled dUTP. The data are plotted as the mean (+/- SD) of 2 experiments for CDK4 and CDK6 inhibitor treatment, and the mean of 6 experiments (+/- SD) for untreated samples. The duration of treatment is plotted along the x-axis in doubling times (DT) for MCF7 cells.
After treatment, cells were fixed, washed with PBS, permeabilized and β-gal was detected using anti-β-galactosidase antibody; for multiplexed assays, TUNEL staining was carried out using Roche TUNEL reagents as indicated above. Nuclei were also stained with PI for total cell counting. Plates were read in an Acumen Explorer Ex3 (TTP Labtech) and raw data were analyzed with Cellista software. Outputs were expressed as percentages of each identified subpopulation 1) positive β-gal, and 2) total cell number. The percentages of β-gal positive cells, TUNEL positive cells, and cell numbers were plotted in Microsoft Excel.

pRb at S807/811 = assay: Immunoblotting of phospho-Rb in ZR-75-1, T-47D and MCF7 cells; format: cell-based, human; details: MCF7, T-47D, ZR-75-1 cells; 24 hours; 0.027 µM to 20 µM
Method: Protein lysates were prepared from the cells and analyzed for the expression of various biomarkers by immunoblotting. The biomarkers included phosphor-Rb at serines 807/811,phosphorylation of serine 2 on the C-terminal repeat domain on RNA polymerase II (pCTD) and MCL1. Images of Western blots were cropped to denote the relevant band(s) for clarity. […] Ki-67 positive events were obtained by gating versus background signal.

pRb (Ser780) = assay: High content imaging of Rb phosphorylation (Ser780), EFM-19; format: cell-based; details: Homo sapiens, 16 hours, mean ± Stdev n = 2
Method: Relative IC50/EC50 values were determined by curve fitting to a four parameter logistic equation: Y = bottom + ((top-bottom)/ (1+exp(HillSlope*(X – LnIC50)), where X is the natural log of dose/concentration, Y is response, decreasing as X increases, top and bottom are plateaus in the same units as Y, lnIC50 is the natural log of potency, in the same log units as X, and HillSlope measures the steepness of the curve. Data were plotted using GraphPad Prism.
As controls, cells were treated with 10 µM palbociclib or vehicle ( 0.2 % v/v DMSO). Additional details for cell-based assays are provided in the Supplemental Methods. […]
www.impactjournals.com/oncotarget/ Oncotarget Supplementary Materials
Preclinical characterization of abemaciclib in hormone receptor […]
METHODS High content imaging cell-based assays for monitoring phosphorylation of Rb (ser780), G1 arrest and
Enzyme kinetics of CDK6/cyclin D3 complexes Cells were fixed with para-formaldehyde and Rb phosphorylation at Serine 780 was detected using CDK6/cyclin D3 activity was measured by the a primary mouse anti-Rb (PS780) antibody followed phosphorylation of CTRF using [g-33P] […] Plates were read in an kinase buffer containing 68 mM Hepes at pH 7.5, 6.67 mM Acumen Explorer eX3 (TTP Labtech). […]
(EDTA) was used to determine the level of background evaluated by measuring PI signal using high content 33P in the absence of enzyme activity. […]

IC50 (pRb (Ser780)): 12 ± 11 nM
Compound: CCN1CCN(Cc2ccc(Nc3ncc(F)c(-c4cc(F)c5nc(C)n(C(C)C)c5c4)n3)nc2)CC1 [abemaciclib, Abemaciclib]
TUNEL staining (MCF7 cells): increase in TUNEL staining was observed by 2DT
levels of phosphorylated Rb (pRb) at S807/811 (pRb at S807/811): decrease in levels of phosphorylated Rb
